Results from US8415317B2, “Adjuvant compositions and methods for enhancing immune responses to polynucleotide-based vaccines” (priority 1999, dated 2013).
“Also recorded” adds a separate entry of the source.

Key:
[1] = tested on: influenza nuclear protein (NP); design: species or system mice; settings: mouse, in vivo
[2] = Tolerability of i.m. injection in the mouse model; type: in vivo; settings: highest dose tested: 100 μg VR4700 plasmid+48 μg GAP-DMORIE+60 μg DPyPE per mouse
Procedure: All cytofectin/co-lipid formulations used in this study remained uniformly opaque for several hours after preparation at room temperature without any visible aggregation. Formulations were injected 20 min-1.5 hours after complexation.

hemagglutinin (HA) = tested on: hemagglutinin (HA); design: species or system humans; settings: in vivo

Which “level of antibody stimulation (GMT relative to that for pDNA alone)” value (from here on “level … (GMT relative to that for pDNA alone)”) [1] does the source give for `CCCCCCCCCCCCCCOCC(C[N+](C)(C)CCO)OCCCCCCCCCCCCCC.[Br-]` (racemic) [DMRIE, (±)-N-(2-hydroxyethyl)-N,N-dimethyl-2,3-bis(tetradecyloxy)-1-propanaminium bromide] here?
Its value is “equally active”.

For `CCCCCCCC/C=C\CCCCCCCCOCC(C[N+](C)(C)CCNC(=O)C(CCCNCCCN)NCCCN)OCCCCCCCC/C=C\CCCCCCCC.Cl.Cl.Cl.Cl.[Cl-]` (stereo not shown) [DOSPA, 2,3-dioleyloxy-N-(2-(sperminecarboxamido)ethyl)-N,N-dimethyl-1-propanaminium pentahydrochloride], which “level … (GMT relative to that for pDNA alone)” value [1] is on record?
The value was “less active than DORIE; also recorded: dramatically decreases the level of antibody titers relative to those seen for pDNA alone”.

For `CCCCCCCCCCCCCCOCC(C[N+](C)(C)CCCN)OCCCCCCCCCCCCCC.[Br-]` (racemic) [GAP-DMRIE, (±)-N-(3-aminopropyl)-N,N-dimethyl-2,3-(bis-tetradecyloxy)-1-propanaminium bromide], which “level … (GMT relative to that for pDNA alone)” value [1] is on record?
Its value is “no apparent advantage”.

What does the source list for `CCCC/C=C\CCCCCCCCOCC(C[N+](C)(C)CCCN)OCCCCCCCC/C=C\CCCC.[Br-]` (racemic) [GAP-DMORIE, (±)-N-(3-aminopropyl)-N,N-dimethyl-2,3-bis(syn-9-tetradeceneyloxy)-1-propanaminium bromide]?
discomfort or adverse reactions when injected into mouse muscle [2]: did not appear to produce discomfort or result in any adverse reactions; immune responses of human subjects, HA GMT antibody titer (hemagglutinin (HA)): induced; humoral immune response, level of antibody titers from pDNA immunization [1]: synergistic effect to further enhance the humoral immune response; level of antibody stimulation (GMT relative to that for pDNA alone) [1]: markedly enhances antibody responses; also recorded: more active than either DMORIE or GAP-DMRIE
